Measurements: patent publication US20250270648A1, “MOLECULAR SIGNATURE FOR ASSESSING THE RESPONSIVENESS OF CANCER TO MITOCHONDRIA-TARGETED ANTIOXIDANTS” (UNIVERSITÉ CATHOLIQUE DE LOUVAIN, priority 2021, published 2025)

How the values were obtained:
[1] = system: 4T1 breast tumors; experiment: 4T1-bearing mice, doxorubicin ±MitoTEMPO; assay type: in vivo, mouse; conditions: doxorubicin 4 mg/kg i.v. weekly ×3 + MitoTEMPO 0.7 mg/kg i.p. daily; lungs day +21
Experimental: On day −8, nine-week-old female Balb/cJRj mice (Janvier®) were injected with 200,000 viable 4T1 cells into the fourth mammary fat pad. When tumors reached an average diameter of 4 mm (day 0) and became palpable in all mice, an intravenous injection of doxorubicin (4 mg/kg) was administered once per week during 3 weeks (30) ±daily intraperitoneal injections of MitoTEMPO (0.7 mg/kg) or the same volume of vehicle (DMSO) until the end of the experiment. Tumor volume was determined three times a week using an electronic caliper and normalized to tumor volume at day 0. At the end-point (day +21), mice were sacrificed and their lungs were fixed in formalin. Tissues were stained with hematoxylin & eosin (H&E). Pictures of whole lung slides were acquired with a slide scanner (SCN400, Leica®) and analyzed with the Digital Image Hub software (DIH, Leica®). The area occupied by metastases was normalized to the lung area analyzed.

[2] = system: SkBr3 cells; experiment: RT-qPCR of biomarker signature after SKQ1; assay type: cell-based, human; conditions: 500 nM SKQ1, 48 h
Experimental: (§1) Total mRNA from MDA-MB-231 or SkBr-3 human breast cancer cells treated ±500 nM SKQ1 for 48 h (Alexandr V. et al. Int. J. Cancer 2016; 139, 130-139) was extracted using the Tri reagent (Brunschwig Chemie®, cat #TR118). mRNAs were quantified by NanoDrop™1000 (Thermo Fisher Scientific®), and were reverse-transcribed in complementary DNAs using the high-capacity cDNA Reverse Transcription Kit (Thermo Fisher Scientific®, cat #4368814) according to manufacturer's protocol. Complementary DNAs (500 ng per sample) were amplified by RT-qPCR using the ROX SYBR Master Mix dTTP Blue (Eurogentec®) and primers listed in Table 5 and Table 6 on a CFX96 Real Time PCR system (BioRad®). Gene expression was normalized to […] gene expression.

[3] = system: MDA-MB-231 cells; experiment: RT-qPCR of biomarker signature after SKQ1; assay type: cell-based, human; conditions: 500 nM SKQ1, 48 h
Experimental: as §1

[4] = system: MDA-MB-436 cells; experiment: RT-qPCR of biomarker signature after SKQ1; assay type: cell-based, human; conditions: 500 nM SKQ1, 48 h
[5] = system: murine 4T1 breast cancer cell line; experiment: Mitochondrial superoxide, mitoSOX FACS; assay type: cell-based, mouse
Experimental: (§2) Mitochondrial superoxide was measured in cells loaded with 3 μM of MitoSOX (Invitrogen®, catalogue #M36008) for 10 min at 37° C. Cells were gently detached with Accutase® (Thermo Fisher Scientific®, catalogue #A1110501), resuspended in PBS containing 10 mM of D-Glucose and 2% FBS, and immediately analyzed by flow cytometry using a FACSCantoII flow cytometer (BD Biosciences®).

[6] = system: 4T1 cells; experiment: Migration towards 0.5% serum, chemotaxis chamber; assay type: cell-based, mouse; conditions: 16 h pretreatment, 6 h recovery
Experimental: (§3) Previous to migration and invasion assays, cells were pretreated with the indicated amounts of drugs for 16 h, and left to recover for 6 h in full culture medium. Migration assays were performed in a NeuroProbe® standard 48-well chemotaxis chamber according to manufacturer's instructions. Briefly, the bottom chamber was filled with DMEM containing 0.5% serum as a chemo-attractant. Fifty thousand cells were seeded in the upper chamber in the same medium but without serum ±MitoQ where indicated, and allowed to migrate overnight through an 8-μm pore-size polycarbonate membrane. A similar stimulation protocol was used for invasion assays, with the difference of using Matrigel-coated transwells (Corning®). With MCF7 cells, membranes were previously incubated for 30 min with a solution of Vitronectin 10 μg/ml (Sigma-Aldrich®, #SRP3186). Migrated/invaded cells were fixed and stained with 100 μl of a 0.23% crystal violet solution (Sigma-Aldrich®, #C0775) for 10 min before counting on a SpectraMax™ i3 spectrophotometer equipped with a MiniMax imaging cytometer, using the SoftMax Pro software. Data were normalized to vehicle-treated cells (control).

[7] = system: human MDA-MB-231 breast cancer cell line; experiment: Mitochondrial superoxide, mitoSOX FACS; assay type: cell-based; conditions: increasing doses of cisplatin, 48 h
Experimental: as §2

[8] = system: MCF7 cells; experiment: Mitochondrial superoxide, mitoSOX FACS; assay type: cell-based, human; conditions: DXR 0.1 μg/mL, 24 h
Experimental: as §2

[9] = system: 4T1 cells; experiment: Glucose uptake and lactate release, enzymatic; assay type: cell-based, mouse; conditions: DXR 0.1 μg/mL, 24 h
Experimental: (§4) Cellular oxygen consumption rates (OCRs) were assessed on a Seahorse XF96® bioenergetic analyzer using the Mito Stress® Kit following manufacturer's instructions (Agilent Technologies®). Briefly, 40,000 cells were plated and left to adhere for 24 h before treatment with the indicated doses DXR. Basal mitochondrial oxygen consumption (mtOCR) was identified as the portion of OCR sensitive to 0.5 μM of Complex I inhibitor rotenone together with 0.5 μM of Complex III inhibitor antimycin A. Proton leak corresponded to the portion of mtOCR resistant to 1 μM of ATP synthase inhibitor oligomycin. Maximal OCR was determined after mitochondrial potential disruption using 1 μM of ionophore carbonyl cyanide-4-(trifluoromethoxy)phenylhydrazone (FCCP). At the end of the experiment, cells were lysed in 30 μl of NaOH 0.5 M, and proteins were quantified with the Bradford method in order to normalize data by total protein content. Lactate and glucose concentrations were measured on deproteinized cell supernatants using an ISCUSflex CMA600™ analyzer (Aurora Borealis®), as previously described (Sonveaux et al.; PLoS. One 2012; 7, e33418).

[10] = system: murine 4T1 breast cancer cells; experiment: Seahorse XF96 OCR and proton leak; assay type: cell-based, mouse; conditions: 24 h
Experimental: as §4

[11] = system: MCF7 cells; experiment: Migration towards 0.5% serum, chemotaxis chamber; assay type: cell-based, human; conditions: low dose DXR, 0.1 μg/mL, 16 h pretreatment, 6 h recovery
Experimental: as §3

[12] = system: human MCF7 breast cancer cells; experiment: Seahorse XF96 OCR and proton leak; assay type: cell-based; conditions: 24 h
Experimental: as §4

[13] = system: 4T1 cells; experiment: Invasion, Matrigel-coated transwells; assay type: cell-based, mouse; conditions: low dose DXR, 0.1 μg/mL, 16 h pretreatment, 6 h recovery
Experimental: as §3

[14] = system: MCF7 cells; experiment: Glucose uptake and lactate release, enzymatic; assay type: cell-based, human; conditions: 24 h
Experimental: as §4

Compound: CC1(C)CC(NC(=O)C[P+](c2ccccc2)(c2ccccc2)c2ccccc2)CC(C)(C)N1[O] [MitoTEMPO]
- cancer metastasis in breast cancer-bearing animals treated with DXR [1]: inhibit

Compound: CC1=C(C)C(=O)C(CCCCCCCCCC[P+](c2ccccc2)(c2ccccc2)c2ccccc2)=CC1=O.[Br-] [SKQ1, [10-(4,5-dimethyl-3,6-dioxo-1,4-cyclohexadien-1-yl)decyl]triphenyl-phosphonium, monobromide]
- amplitude of the change in NUPR1 expression [2]: +25%
- amplitude of the change in SLC7A11 expression [2]: +565%
- amplitude of the change in SOX2 expression [2]: −95%
- amplitude of the change in VIM expression [2]: −19%
- genes of the complete biomarker signature with the expected gene expression changes [2]: 13 of the 15
- SLC7A11 expression increased by ([2]; P<0.005): 6.65 fold
- TXNRD1 expression increased by ([2]; P<0.005): 3.20 fold
- gene expression of PCK2 ([2]; P<0.005): increased
- gene expression of SOX2 ([2]; P<0.005): decreased
- PHGDH-1 expression increased by ([2]; P<0.01): 2.26 fold
- PSAT1 expression increased by ([2]; P<0.01): 2.26 fold
- gene expression of ASNS ([2]; P<0.01): increased
- gene expression of ZEB1 ([2]; P<0.05): decreased
- SERPINE1 expression increased by ([2]; P=0.0732): 1.45 fold
- expected gene expression changes that were statistically significant ([2]; among 13 genes): 8
- gene expression of NANOG ([2]; not significant, P=0.1539): decreased
- gene expression of NUPR1 ([2]; not significant, P=0.2615): increased
- gene expression of VIM ([2]; not significant, P=0.3557): decreased
- gene expression of G6PD ([2]; only 2 replicates): increased
- amplitude of the change in NUPR1 expression [3]: +676%
- amplitude of the change in SERPIN1 expression [3]: +63%
- amplitude of the change in SNAI1 expression [3]: −21%
- amplitude of the change in SOX2 expression [3]: −52%
- genes of the complete biomarker signature with the expected gene expression changes [3]: 12 of the 15
- PHGDH-1 expression increased by ([3]; P<0.005): 5.36 fold
- PSAT1 expression increased by ([3]; P<0.005): 3.43 fold
- SLC7A11 expression increased by ([3]; P<0.005): 2.35 fold
- TXNRD1 expression increased by ([3]; P<0.005): 1.69 fold
- gene expression of ASNS ([3]; P<0.005): increased
- gene expression of G6PD ([3]; P<0.005): increased
- gene expression of NUPR1 ([3]; P<0.005): increased
- gene expression of PCK2 ([3]; P<0.005): increased
- gene expression of SLC6A9 ([3]; P<0.005): increased
- gene expression of SOX2 ([3]; P<0.005): decreased
- SERPINE1 expression increased by ([3]; P<0.01): 1.63 fold
- expected gene expression changes that were statistically significant ([3]; among 12 genes): 11
- gene expression of SNAI1 ([3]; not significant, P=0.4575): decreased
- amplitude of the change in ASNS expression [4]: +526%
- amplitude of the change in G6PD expression [4]: +22%
- amplitude of the change in SNAI1 expression [4]: −12%
- amplitude of the change in SOX2 expression [4]: −67%
- genes of the complete biomarker signature with the expected gene expression changes [4]: 14 of the 15
- PHGDH-1 expression increased by ([4]; P<0.005): 2.51 fold
- PSAT1 expression increased by ([4]; P<0.005): 2.53 fold
- TXNRD1 expression increased by ([4]; P<0.005): 2.11 fold
- gene expression of ASNS ([4]; P<0.005): increased
- gene expression of NUPR1 ([4]; P<0.005): increased
- gene expression of PCK2 ([4]; P<0.005): increased
- gene expression of SLC6A9 ([4]; P<0.005): increased
- SERPINE1 expression increased by ([4]; P<0.01): 1.46 fold
- SLC7A11 expression increased by ([4]; P<0.01): 3.60 fold
- gene expression of SOX2 ([4]; P<0.05): decreased
- expected gene expression changes that were statistically significant ([4]; among 14 genes): 10
- gene expression of G6PD ([4]; not significant, P=0.0974): increased
- gene expression of NANOG ([4]; not significant, P=0.5663): decreased
- gene expression of SNAI1 ([4]; not significant, P=0.6013): decreased
- gene expression of ZEB1 ([4]; not significant, P=0.6890): decreased

Compound: N.N.[Cl][Pt][Cl] [cisplatin]
- mitochondrial superoxide production at the ETC ([5]; increasing doses of cisplatin, 48 h): induce
- cancer cell migration ([6]; cisplatin 77.76 μM): induced
- mitochondrial superoxide production at the ETC [7]: induce

Compound: COc1cccc2c1C(=O)c1c(O)c3c(c(O)c1C2=O)C[C@@](O)(C(=O)CO)C[C@@H]3O[C@H]1C[C@H](N)[C@H](O)[C@H](C)O1 [doxorubicin]
- production of mitochondrial superoxide at the ETC [8]: increased production
- glycolysis [9]: little effect
- lactate release [9]: significantly decreasing
- production of mitochondrial superoxide at the ETC ([5]; DXR 0.1 μg/mL, 24 h): increased production
- mtOCR ([10]; Low-dose DXR): increased
- leak of protons at the electron transport chain (ETC) ([10]; increasing doses of DXR): dose dependent leak
- cell migration ([6]; low dose DXR, 0.1 μg/mL): stimulated
- cell migration [11]: stimulated
- mitochondrial oxygen consumption rate (mtOCR) ([12]; DXR low doses, 0.1 to 0.01 μg/mL): increased
- leak of protons at the electron transport chain (ETC) ([12]; increasing doses of DXR): dose dependent leak
- cell invasion [13]: stimulated
- glucose uptake ([14]; DXR 0.1 μg/mL): significantly increasing
- glycolysis ([14]; DXR 0.1 to 0.01 μg/mL range): little effect
